The text below walks through data of patent publication US20090028842A1, “Dekkera/Brettanomyces Cytosine Deaminases And Their Use” (ZGene A/S, priority 2005, published 2009).

Where only a bound is given, the exact number is not on record here.

The subject of data set [1] is Dekkera/Brettanomyces yeasts. In words: Sensitivity of Dekkera/Brettanomyces yeasts to G418. It counts as cell-based. The conditions noted are these: addition of 200 μg/ml; almost all yeasts tested. The source says: There are no suitable auxotrophic markers or efficient transformation system to work with these yeasts. […] Using degenerative primers described in this study it was not possible to amplify CD genes from D. anomala, B. nanus, B. naardenensis and B. custersianus probably due to presence of introns in these genes. Therefore we designed a selection system based on Dekkera bruxellensis CD1 promoter and G418 resistance marker coding for 3′aminoglycoside-phosphotransferase. G418 is a ribosomal inhibitor in many eukaryotic cells but many yeast species are not sensitive to G418. However, almost all Dekkera/Brettanomyces yeasts tested were sensitive to addition of 200 μg/ml. Since G418 cannot be used in medium with high salt concentration (like SD medium) use of CD1 promoter which had activity in YPD medium (low salt) will permit expression of G418 gene and ultimately lead to resistance to G418 and enable direct selection of yeast colonies containing this gene. Cloning strategy was as described: pYES2 vector was cut with AgeI/HindIII restriction enzymes and fragment of app. 440 bp containing GAL promoter was removed. Promoter of 1075 bp from Y872 CD1 gene was cloned into AgeI/HindIII site resulting in pDbCD1p plasmid. The ORF from G418 gene (Acc. nr. S78175) was cloned under control of CD1 promoter into BamHI/EcoRI site. […]

Data set [2] deals with MCF7 cell line transduced with pLCXSN. Kind of data set: XTT cell proliferation assay, MCF7 transduced with empty vector pLCXSN. It counts as cell-based. The conditions noted are these: Homo sapiens. The source says:
(§1) ORFs were amplified with Accuzyme DNA polymerase (Bioline) using primers with designed flanking restriction enzyme sites and containing Kozak sequence at 5′ end. D. bruxellensis CD constructs were cloned into the retrovirus vector pLCXSN. The vector is based on pLXSN (Clontech) to which the CMV promoter has been cloned into the polylinker site to form pLCXSN. The constructs obtained was named DbCDCvir (PZG917). pLCXSN alone was used as a control. The plasmids were purified using the Qiagen plasmid kit (QIAGEN) and DNA sequences were verified by DNA sequence determination. HE 293 T packaging cells (ATCC CRL-11268) were cultured at 37° C. in OPTIMEM 1 medium (Life Technologies, Inc.) The constructed retrovirus vectors were transfected into the packaging cells using LipofectAMINE PLUS (Life Technologies, Inc.) according to the protocol provided by the supplier. The medium from the transfected cells was collected 48 hours after transfection, filtered through a 0.45 μm filter, pelleted by ultracentrifugation (50.000×g, 90 minutes at 4° C.) and dissolved in D-MEM.
Cancer cells were purchased from the American Type Culture Collection. Cells were cultured in RPMI, E-MEM or D-MEM with 10% (v/v) Australian originated foetal calf serum and 1 ml/l of gentamicin. Cells were grown at 37° C. in a humidified incubator with a gas phase of 5% CO2. […]
In general terms: Formazan colour is commonly taken as a measure of viable cells.

In data set [3] the test system is S. cerevisiae. In words: Growth of S. cerevisiae on plates containing 5-FC. It counts as cell-based, Saccharomyces cerevisiae. The procedure:
(§2) The yeast strains used in this work are: Dekkera bruxellensis (Y872, CBS 1943), D. bruxellensis (Y879, CBS 2499), D. bruxellensis (CBS 4480, CBS 4481), D. anomala (CBS 76, CBS 77, CBS 1938, CBS 1947), Brettanomyces nanus (CBS 1945), B. nanus (CBS 1955, CBS 1956), M. reukauffii (CBS 2266), B. custersianus (CBS 4805), B. naardensis (CBS 6042), S. kluyveri Y057 (NRRL Y-12651), and S. cerevisiae Y051 (NRRL Y-12632). Yeast strains were grown at 25° in YPD medium (1% yeast extract, 2% bacto peptone, 2% glucose) or in defined minimal (SD) medium (1% succinic acid, 0.6% NaOH, 2% glucose, 0.67% yeast nitrogen base without amino acids from Difco). When indicated, (NH4)2SO4 was replaced with 0.1% cytosine as the sole nitrogen source giving N-minimal medium. The growth rate was determined in liquid medium by following the optical density at 600 nm. The E. coli strain TOP10 (Invitrogen) was used for plasmid amplification. Bacteria were grown at […] in Luria-Bertani medium supplemented with 100 mg/l of ampicillin for selection. The E. coli BL21-DE3 (Invitrogen) strain was used for heterologous protein expression.
(§3) The majority of yeast can utilize cytosine as sole source of nitrogen by using CD to cleave cytosine to ammonia (a source of nitrogen) and uracil. To test for the ability of Dekkera yeast for growth on cytosine, Y872 was spotted on N-minimal media containing 0.1% cytosine. […]

Data set [4] has as its system U87MG. Kind of data set: XTT cell proliferation assay, untransduced U87MG. It counts as cell-based. The conditions noted are these: Homo sapiens, U-87 MG, 96-120 hours of drug exposure. How it is done:
(§4) Cancer cells were purchased from the American Type Culture Collection. Cells were cultured in RPMI, E-MEM or D-MEM with 10% (v/v) Australian originated foetal calf serum and 1 ml/l of gentamicin. Cells were grown at 37° C. in a humidified incubator with a gas phase of 5% CO2. The cells were transduced with the retrovirus containing medium mixed with 5 μg/ml of Polybrene, incubated for 48 hours and then cultured continuously for 3 weeks in the presence of 300-400 μg/ml Genetecin® (Life Technologies Inc.).
(§5) Cells were plated at densities range of 1.500-3.500 cells/well in 96-well plates coated with poly-L-lysine (Sigma). 5-FC was added after 24 hours of incubation. Each experiment was performed in four replicates. Cell survival was assayed after 96-120 hours of drug exposure by XTT cell proliferation kit (Roche). The data was corrected for background media-only absorbance where after the 50% cell killing drug concentration (IC50 value) was calculated using SigmaPlot® (SPSS Science, Dyrberg Trading, Denmark).

In data set [5] the test system is D. bruxellensis. Kind of data set: Growth of D. bruxellensis on plates containing 5-FC. It counts as cell-based, Dekkera bruxellensis. The conditions noted are these: after 5 days. How it is done:
as §2, §3

Data set [6] deals with PANC-1. Kind of data set: XTT cell proliferation assay, untransduced PANC-1. The conditions noted are these: Homo sapiens; untransduced PANC-1, 96-120 hours of drug exposure. It counts as cell-based. How it is done: as §4, §5
Data set [7] has as its system MCF7. In words: XTT cell proliferation assay, untransduced MCF7. It counts as cell-based. The conditions noted are these: Homo sapiens; untransduced MCF7, 96-120 hours of drug exposure. How it is done:
as §4, §5

Data set [8] has as its system MCF7 cell line transduced with Db CD gene. Kind of data set: XTT cell proliferation assay, MCF7 transduced with D. bruxellensis cytosine deaminase. It counts as cell-based, human.
From the text: as §1, §4, §5

In data set [9] the test system is HT-29. In words: XTT cell proliferation assay, untransduced HT-29. It counts as cell-based. The conditions noted are these: Homo sapiens; untransduced HT-29, 96-120 hours of drug exposure. How it is done: as §4, §5
Data set [10] has as its system Metschnikowia reukauffii. In words: Growth of control strain Metschnikowia reukauffii on plates containing 5-FC. It counts as cell-based. The conditions noted are these: 0.1 or 0.36 μM 5-FC, 5 days. The procedure: as §2
(§6) In FIG. 2 it can be seen that all the tested Dekkera/Brettanomyces strains are particularly susceptible to 5-FC, as growth is inhibited at 0.1 or at least at 0.36 μM 5.FC. For comparison, S. cerevisiae (FIG. 1) and M. reukauffii (FIG. 2) strains are included.

Data set [11] relates to Dekkera/Brettanomyces strains. In words: Growth of various Dekkera/Brettanomyces strains on plates containing 5-FC. It counts as cell-based. The conditions noted are these: all tested Dekkera and Brettanomyces species, after 5 days. The procedure:
as §2, §6

Data set [12] can be described thus: CD activities with purified his-tagged proteins. The conditions noted are these: purified his-tagged protein, 37° C., cytosine 500 μM, triplicates, mean with standard deviation. It counts as biochemical. How it is done: For recombinant protein expression, E. coli cells were grown to a density of A600 nm=0.5-0.6 in LB medium supplemented with 100 μg/ml ampicillin, and the expression was induced with 10 μM IPTG for 8 h at 25° C. The cells were harvested by centrifugation, and the pellet was resuspended in 25 ml ice-cold binding buffer A […] (50 mM sodium phosphate pH 8.0; 300 mM NaCl; 10% glycerol; 25 mM imidazole) containing protease inhibitor cocktail (Complete™-EDTA free from Roche Diagnostics). The cells were homogenized using a French Press, subjected to centrifugation at 12,000×g for 30 minutes (4° C.), filtered through a […] Whatman glass microfiber filter and a […] cellulose acetate filter, and loaded onto a 5 ml Ni^2+-NTA column (Qiagen). […]
Bacteria or cell lines were grown as described, harvested and stored at −80° C. until activity testing. […] Cytosine deaminase activities were determined spectrophotometrically by monitoring the absorbance decrease at 286 nm (Δε286=−0.68 mM^−1 cm^−1) resulting from the deamination of cytosine to uracil. […]
To characterize the substrate specificities of yeast CDs, purified proteins were measured at 37° C. and fixed cytosine concentration and assays was performed as described in Example 1 (Enzyme assays) (Table 3).

Data set [13] is classed as physicochemical. How it is done:
Purified and his-tagged CD from D. bruxellensis and S. cerevisiae CD were assayed after different periods of storage at 50° C. and 37° C. (FIGS. 8a and 8b). Indeed, D. bruxellensis CD was extremely stable at 50° C. when compared to S. cerevisiae CD which lost all activity after only 4 minutes. Half life for D. bruxellensis CD at 50° C. was app. 3 hours (FIG. 8a). […] It should be observed that the temperature stability of the proteins without his-tags could be different.

As to `CN[C@@H]1[C@@H](O)[C@@H](O[C@@H]2[C@@H](O)[C@H](O[C@H]3O[C@H]([C@@H](C)O)[C@@H](O)[C@H](O)[C@H]3N)[C@@H](N)C[C@H]2N)OC[C@]1(C)O` [G418], the “Sensitivity to G418” value in [1] is on record as “sensitive”.

For orientation: IC50 means the point on the concentration scale where inhibition reaches its midpoint. The low end stands for greater potency in that assay, the high end for weaker potency in that assay. Consider `Nc1nc(=O)[nH]cc1F` [5-FC, 5-fluorocytosine], for which the half-maximal inhibitory concentration (IC50) is 9.29 mM in data set [2]; 2 to 5 mM in data set [4]; 2 to 5 mM in [6]; 2 to 5 mM in data set [7]; 2.4 mM in data set [8] (Homo sapiens, MCF7, MCF7 transduced with D. bruxellensis cytosine deaminase); 2.44 mM in data set [8] (MCF7 transduced with D. bruxellensis cytosine deaminase). In [9], this molecule gave a concentration for half-maximal inhibition (IC50) of 2 to 5 mM. In addition, the “Growth on plates with 5-FC” value in data set [3] (S. cerevisiae control strain, 0.1 or 0.36 μM 5-FC, 5 days) is recorded as “not inhibited”; in data set [10], “not inhibited”. Further, the “5-FC concentration at which growth was first inhibited” value in [3] (S. cerevisiae, plates, after 5 days) was found to be 1 µM. The “5-FC concentration at which growth inhibition was observed” value in [5] is 0.1 µM; in data set [11], at most 0.36 µM. The “5-FC concentration at which there was no visible growth” value in [5] stood at 0.36 µM. For the same molecule, the “sensitivity increase towards 5-FC” value in data set [8] (MCF7 with Db CD versus empty vector) came to 4 fold.

B1: Db CD (PZG893): cytosine deaminase from Dekkera bruxellensis (SEQ ID NO 2), recombinant his-tagged protein (protein, listed as Dekkera bruxellensis)
chain: MTFDDKLGMQVAFEEAKKGFEEGGVPIGACLLTEEGKVIGRGHNMRVQKSSATLHGETSCFENAGRLPASVYKKCTLYTTLSPCSMCSGAALLFKIPRIVLGENETFVGAEKWLESNGVEVVNVHNKECKNLMDRFIKEKPEVWNEDIGE
modifications: His tag
Regarding B1, the “CD activity, Cytosine” value in data set [12] is 176.5 ± 5.3 U/mg/min. Also, in data set [13], the Half life is around 3 h and the “Stability compared to S. cerevisiae CD” value is recorded as “more stable”.
